Source: PMC5557796, “Ligand binding modes from low resolution GPCR models and mutagenesis: chicken bitter taste receptor as a test-case” (Scientific Reports, 2017)

How the values were obtained:
[1] = molecular target: T1, ggTas2r1 (Gallus gallus, UniProt Q2AB83); test: FLIPR calcium mobilization, Fluo4-AM; assay type: cell-based; conditions: agonist, HEK 293T with Galpha16gust44
T1 construct: gene TAS2R40; full-length receptor with in-frame N-terminal sst3-tag and C-terminal hsv-tag in pcDNA5/FRT; transient in HEK 293T stably expressing chimeric Galpha16gust44
T1 sequence (Q2AB83 1-311): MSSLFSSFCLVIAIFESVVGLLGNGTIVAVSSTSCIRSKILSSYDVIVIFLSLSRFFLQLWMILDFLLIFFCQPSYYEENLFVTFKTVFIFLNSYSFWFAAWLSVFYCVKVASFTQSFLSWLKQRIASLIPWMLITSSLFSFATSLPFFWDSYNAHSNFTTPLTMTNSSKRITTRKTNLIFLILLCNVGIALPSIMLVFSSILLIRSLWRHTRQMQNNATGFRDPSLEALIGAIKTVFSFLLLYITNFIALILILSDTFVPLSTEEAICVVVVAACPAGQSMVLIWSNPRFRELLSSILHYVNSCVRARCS

[2] = molecular target: T1, ggTas2r1; test: FLIPR calcium mobilization, Fluo4-AM; assay type: cell-based; conditions: agonist; HEK 293T with Galpha16gust44; 2.5 mM probenecid in dye loading

Compound	dose-response ΔF/F [1]	other results
CN(C)CCC(c1ccc(Cl)cc1)c1ccccn1 (stereo not drawn) [chlorpheniramine]	The functional data for receptor constructs stimulated with chlorpheniramine ranges from wild-type like receptor	–
OC(CCCN1CCCCC1)(c1ccccc1)c1ccccc1 [diphenidol]	variable decrease in responses compared to the wild-type ggTas2r1 upon stimulation with diphenidol	–
O=c1ccc2ccccc2o1 [coumarin]	The small compound coumarin is only a weak agonist for ggTas2r1	–
O=C(N[C@H](CO)[C@H](O)c1ccc([N+](=O)[O-])cc1)C(Cl)Cl [chloramphenicol]	at high chloramphenicol concentration the maximal signal amplitude is comparable to the native receptor	–
C=C[C@H]1CN2CC[C@H]1C[C@@H]2[C@@H](O)c1ccnc2ccc(OC)cc12 [quinidine]	–	threshold concentration [2]: ~ 0.3 µM
C=C[C@H]1CN2CC[C@H]1C[C@H]2[C@H](O)c1ccnc2ccc(OC)cc12 [quinine]	–	dose-response ΔF/F ([1]; tested as quinine sulfate): subjected to calcium-mobilization assays using different concentrations of quinine sulfate
